Laboratory results published in the supplement of paper PMC10307832.

Key:
Assay in all cases: relative viability (nuclei count vs DMSO), 5 days (fraction); higher = more cells survive
[1] = compound: CCC1=CN=CN=C1N2CCN(CC2)CC3=NC4=C(N3)C=C(C=C4)C(F)(F)F + Nc1ncn([C@H]2C[C@H](O)[C@@H](CO)O2)c(=O)n1 [Decitabine] (partner 2 µM)
Procedure, shortened: (§1)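 Relative viability was taken as the ratio of nuclei in treated wells to nuclei in vehicle wells. Lung cancer cell lines in 1536-well plates received compounds by pin tool one day after seeding, either one drug alone or a fixed anchor-drug dose plus five library-drug doses (not always all listed) in √10 steps. Nuclei were counted on 4× images after 5 days of treatment, and values are medians of duplicate plates.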

[2] = compound: CCn1c(-c2nonc2N)nc2cnc(Oc3cccc(NC(=O)c4ccc(OCCN5CCOCC5)cc4)c3)cc21 + CC(C)C[C@H](NC(=O)[C@H](Cc1ccccc1)NC(=O)c1cnccn1)B(O)O [Bortezomib] (partner 0.002 µM)
Procedure, shortened: as §1

[3] = compound: CCn1c(-c2nonc2N)nc2cnc(Oc3cccc(NC(=O)c4ccc(OCCN5CCOCC5)cc4)c3)cc21 + COc1cc2c(Oc3ccc(NC(=O)C4(C(=O)Nc5ccc(F)cc5)CC4)cc3F)ccnc2cc1OCCCN1CCOCC1 [Foretinib] (partner 0.25 µM)
Procedure, shortened: as §1

Cell Line	relative viability ([1]; first compound 0.04 µM)	relative viability ([1]; first compound 0.1265 µM)	relative viability ([1]; first compound 0.4 µM)	relative viability ([1]; first compound 1.265 µM)	relative viability ([1]; first compound 4 µM)	relative viability ([2]; first compound 0.04 µM)	relative viability ([2]; first compound 0.1265 µM)	relative viability ([2]; first compound 0.4 µM)	relative viability ([2]; first compound 1.265 µM)	relative viability ([2]; first compound 4 µM)	relative viability ([3]; first compound 0.04 µM)	relative viability ([3]; first compound 0.1265 µM)	relative viability ([3]; first compound 0.4 µM)	relative viability ([3]; first compound 4 µM)	relative viability ([3]; first compound 1.265 µM)
HCC-15	0.537	0.558	0.633	0.608	0.575	1.2	0.992	0.882	0.757	0.913	1.13	0.951	0.998	0.906	
H3255	0.578	0.555	0.594	0.52	0.55	1.03	0.9	0.728	0.526	0.531	1.22	0.834	0.679	0.642	0.668
NCI-H1792	0.543	0.437	0.57		0.523	1.09	1		0.631	0.817					
NCI-H1563						0.793	0.821	0.669	0.753	0.603	0.792	0.786	0.769	0.666	0.85
NCI-H647	0.449	0.273	0.356	0.325	0.301	0.847	0.654	0.614	0.536	0.631	1.27	1.09	0.913	0.715	0.668
NCI-H2126	0.598	0.58	0.595	0.541	0.58	1.14	1.13	0.918	1.08	1.08	1.22	1.08		1.29	
NCI-H727	0.798	0.875	0.956	0.655	0.941	1.44	0.983	0.787	0.97	0.88	1.08	0.888	0.852	1.15	1.15
NCI-H522	0.666	0.63	0.821	0.621	0.797										
EMC-BAC-2		0.945	0.998	0.924	1.05	1.18	0.967	0.792	0.731	0.442	0.988	1	0.973	0.565	0.644
NCI-H1355	0.326	0.388	0.344	0.339	0.359	1.22	1.27	1.02	0.72	0.621	1.05	0.948	1.03	1	0.955
NCI-H2347	0.666	0.551	0.63	0.613	0.529	1.1	0.959	0.792	0.49	0.649	1.08	1.27	1.26	0.585	0.459
NCI-H1651	0.623	0.413	0.667	0.602	0.581	0.9	0.94	0.824	0.496	0.86	1	0.963	0.959	0.455	0.662
NCI-H1975	0.358	0.396	0.41	0.339	0.393	0.244	0.263	0.227	0.177	0.165	0.869	0.717	0.664	0.281	0.412
COR-L23	0.438	0.378	0.406	0.383	0.499	1.08	0.646	0.238	0.185	0.193	0.91	0.778	0.569	0.176	0.182
HCC-44	0.964	0.939	0.944	0.949	0.937	0.889	0.902	0.56	0.305	0.248					
LOU-NH91	0.797	0.79	0.806	0.841	0.816	0.561	0.526	0.439	0.343	0.377	0.92	0.83	0.697	0.525	0.47
NCI-H460	0.535	0.424	0.496	0.435	0.452	1.09	1.03	0.716	0.5	0.26	1.06	0.902	0.978	0.16	0.426
NCI-H1299						1.06	0.975	0.929	0.825	0.734	1.03	1.06	0.969	0.789	0.858
LK-2	0.254	0.266	0.346	0.256	0.231						1.23	1.19	1.28	1.28	1.26
NCI-H358	0.206	0.204	0.158	0.174	0.217						0.886	0.653	0.775	0.44	0.396
SK-MES-1	0.34	0.386	0.373	0.372	0.361						1.03	0.645	0.502	0.638	0.674
NCI-H1648	0.502			0.511	0.502										
EBC-1						0.771	0.566	0.537	0.458	0.342	0.0933	0.0951	0.0949	0.0597	0.0808
NCI-H1395	0.705	0.676	0.692		0.743						1.03	0.95	0.975	0.561	0.501
IA-LM						1.31	0.972	0.99	0.795	0.811	1.65	1.39	1.13	0.898	1.06
NCI-H1703						0.369	0.283	0.178	0.187	0.178	0.312	0.326	0.332	0.264	0.337
NCI-H2170	0.44	0.462	0.451	0.433	0.461						1	0.99	0.997	0.848	0.939
NCI-H1793	0.479	0.484	0.436	0.428	0.432						0.712	0.572	0.734	0.725	0.76
